Experimental data taken from patent US20230193336A1, “ENASIDENIB GLYCOSIDES AND METHODS OF TREATING DISEASES ASSOCIATED WITH ISOCITRATE DEHYDROGENASE (IDH) DYSFUNCTION” (Double Rainbow Biosciences Inc., priority 2020, published 2023).
Values after ≈ are worked out from the molar mass of the structure shown. Like-named read-outs stand apart in the source and are kept apart here.

Assays:
[1] = in vivo; cited from earlier work
physchem = assay type: physicochemical
Procedure: The water solubility of enasidenib and enasidenib-O-D-glucoside was investigated by suspending excess amounts of the two compounds in 200 μl of distilled water in a microcentrifuge tube at 25° C. for 12 h. Afterwards, each sample was centrifuged at 12,000×g for 20 min. The supernatant of each sample was then filtered through a 0.45-μm membrane filter and the concentration of the compound in the supernatant, which is defined as the water-soluble component, was measured by its absorbance at 254 nm using HPLC, and its absolute solubility was calculated in reference to the concentration-absorbance standard curve.

[2] = cited from earlier work
[3] = 100 mg dose; cited from earlier work
[4] = system: AML patients with an IDH2 mutation; conditions: cited from earlier work
[5] = clinical trials; cited from earlier work
[6] = system: IDH2 R140 and R172 mutant homodimers or heterodimers; conditions: cited from earlier work
[7] = system: cancer cell lines containing endogenous or exogenously expressed mutant IDH2; conditions: cancer cell lines with endogenous or exogenously expressed mutant IDH2; cited from earlier work
[8] = system: mouse xenograft models of AML; conditions: cited from earlier work
human AML patients = conditions: cited from earlier work
cell culture assays = conditions: cited from earlier work
UGT1A1 = target: T1, UGT1A1 (Homo sapiens, UniProt P22309); conditions: side effect: abnormal bilirubin metabolism; cited from earlier work
T1 sequence (P22309 26-533): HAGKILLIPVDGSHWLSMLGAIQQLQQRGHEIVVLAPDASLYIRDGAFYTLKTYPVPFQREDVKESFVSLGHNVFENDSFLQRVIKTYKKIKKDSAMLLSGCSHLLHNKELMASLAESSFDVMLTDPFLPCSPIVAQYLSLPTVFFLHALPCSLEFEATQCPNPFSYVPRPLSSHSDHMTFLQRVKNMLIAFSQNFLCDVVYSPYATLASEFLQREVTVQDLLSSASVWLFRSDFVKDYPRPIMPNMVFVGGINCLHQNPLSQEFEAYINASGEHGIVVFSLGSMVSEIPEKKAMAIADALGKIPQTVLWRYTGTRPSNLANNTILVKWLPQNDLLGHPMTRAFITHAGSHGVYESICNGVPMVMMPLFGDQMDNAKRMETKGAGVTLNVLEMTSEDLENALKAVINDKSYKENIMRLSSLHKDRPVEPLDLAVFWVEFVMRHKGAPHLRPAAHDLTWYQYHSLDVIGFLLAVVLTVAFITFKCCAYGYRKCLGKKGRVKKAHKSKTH

C[C@@H](Nc1nc(N[C@H](C)C(F)(F)F)nc(-c2cccc(Cl)n2)n1)C(F)(F)F [AG-881]
blood-brain barrier penetration [1]: can penetrate the blood-brain barrier

CC(C)(CNc1nc(Nc2ccnc(C(F)(F)F)c2)nc(-c2cccc(C(F)(F)F)n2)n1)OC1O[C@H](CO)[C@@H](O)[C@H](O)[C@H]1O (stereo partly drawn) [enasidenib-O-D-glucoside]
water solubility (physchem): 40 µg/mL (≈ 62.9 µM) | water solubility relative to enasidenib (physchem): 7 times

CC(C)(O)CNc1nc(Nc2ccnc(C(F)(F)F)c2)nc(-c2cccc(C(F)(F)F)n2)n1 [enasidenib, Enasidenib]
solubility at 12 h (physchem; 25 °C, water, thermodynamic from solid): 6 µg/mL (≈ 12.7 µM) | aqueous solubility [2]: less than 74 μg/mL | aqueous solubility ([2]; pH 7.4 (Yen et al. 2017)): 23 µM (≈ 10.9 µg/mL) | oral bioavailability [3]: 57% | AML patients with an IDH2 mutation who experienced complete remission ([4]; human, in vivo): 19.3% | overall response rate ([4]; single therapeutic, AML and relapsed/refractory-AML patients with an IDH2 mutation): 41% | patients who completely discontinued enasidenib [5]: 17% | patients who had to stop taking the drug as a result of adverse events [5]: 43% | patients with serious adverse events [5]: approximately 77% | lower inhibitory concentration for mutant IDH2 compared to the wild type IDH2 ([6]; R140 and R172 mutant homodimers or heterodimers versus wild type IDH2): approximately 40 fold | inhibition kinetics ([6]; kinetics assays): slow on/slow off tight binding inhibition kinetics | 2-HG concentration [7]: reduced the 2-HG concentration | 2-HG concentration [8]: reduced the 2-HG concentration | 2-HG concentration (human AML patients): reduced the 2-HG concentration | differentiation (cell culture assays): induced differentiation | UGT1A1 inhibition (UGT1A1): inhibition of UGT1A1
